Laboratory results taken from US9227971B2, “Pyrazolo[1,5-a]pyrimidine compounds as mTOR inhibitors” (Merck Sharp & Dohme Corp., priority 2010, dated 2016).

Experiments:
[1] = system: phosphorylated AKT Ser473 (pAKT S473), mTORC2 activity, PC3 cells; assay: mTOR target engagement assay, immunofluorescent cell-based, pAKT S473 readout (mTORC2 activity); conditions: Homo sapiens, PC-3, PC3 cells
Method in brief: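 After blocking, cells were stained overnight at 4 °C with anti-pAKT S473 antibody, then a fluorescent secondary; inhibition was read as reduced fluorescence intensity.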

[2] = system: phosphorylated 4E-BP1 Thr37/46 (p4E-BP1 Thr37/46), mTORC1 activity, PC3 cells; assay: mTOR target engagement assay, immunofluorescent cell-based, p4E-BP1 Thr37/46 readout (mTORC1 activity); conditions: Homo sapiens, PC-3, PC3 cells; read-out: p4E-BP1 Thr37/46 IC50
Method in brief: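 Read-out is fluorescence intensity of immunostained p4E-BP1 Thr37/46 in fixed PC3 cells, fitted to a logistic curve for IC50 with DMSO-only wells as top. Cells had been exposed to serial compound dilutions for ninety minutes at 37° C in 5% FBS medium with 0.25% DMSO.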

## CC(=O)c1c([C@@H]2C[C@H]3CC[C@@H](C2)N3C(=O)c2nnc[nH]2)nc2c(-c3ccc([C@@H](O)C(F)(F)F)nc3)cnn2c1N [Compound 7.73, 1-(5-((1R,3s,5S)-8-(4H-1,2,4-triazole-3-carbonyl)-8-azabicyclo[3.2.1]octan-3-yl)-7-amino-3-(6-((R)-2,2,2-trifluoro-1-hydroxyethyl)pyridin-3-yl)pyrazolo[1,5-a]pyrimidin-6-yl)ethanone]
[1]
  IC50: 0.1 to 1 µM
[2]
  IC50: 0.1 to 1 µM

## CC(=O)c1c([C@@H]2C[C@H]3CC[C@@H](C2)N3C(=O)c2nnc[nH]2)nc2c(-c3ccc([C@H](O)C(F)(F)F)nc3)cnn2c1N [Compound 7.74, 1-(5-((1R,3s,5S)-8-(4H-1,2,4-triazole-3-carbonyl)-8-azabicyclo[3.2.1]octan-3-yl)-7-amino-3-(6-((S)-2,2,2-trifluoro-1-hydroxyethyl)pyridin-3-yl)pyrazolo[1,5-a]pyrimidin-6-yl)ethanone]
[1]
  IC50: 0.1 to 1 µM
[2]
  IC50: 0.1 to 1 µM

## CC(=O)c1c([C@@H]2C[C@H]3CC[C@@H](C2)N3C(=O)c2nnc(N)[nH]2)nc2c(-c3ccc(C(O)(C(F)(F)F)C(F)(F)F)nc3)cnn2c1N [Compound 7.78, 1-(7-amino-5-((1R,3s,5S)-8-(5-amino-4H-1,2,4-triazole-3-carbonyl)-8-azabicyclo[3.2.1]octan-3-yl)-3-(6-(1,1,1,3,3,3-hexafluoro-2-hydroxypropan-2-yl)pyridin-3-yl)pyrazolo[1,5-a]pyrimidin-6-yl)ethanone]
[1]
  IC50: 0.1 to 1 µM
[2]
  IC50: 0.1 to 1 µM

## CC(=O)c1c([C@@H]2C[C@H]3CC[C@@H](C2)N3C(=O)c2cc(N)n[nH]2)nc2c(-c3ccc(C(O)(C(F)(F)F)C(F)(F)F)nc3)cnn2c1N [Compound 7.79, 1-(7-amino-5-((1R,3s,5S)-8-(3-amino-1H-pyrazole-5-carbonyl)-8-azabicyclo[3.2.1]octan-3-yl)-3-(6-(1,1,1,3,3,3-hexafluoro-2-hydroxypropan-2-yl)pyridin-3-yl)pyrazolo[1,5-a]pyrimidin-6-yl)ethanone]
[1]
  IC50: 0.1 to 1 µM
[2]
  IC50: 0.1 to 1 µM

## CC(=O)c1c([C@@H]2C[C@H]3CC[C@@H](C2)N3C(=O)c2nnc[nH]2)nc2c(-c3ccc(C(N)(C(F)(F)F)C(F)(F)F)nc3)cnn2c1N [Compound 7.80, 1-(5-((1R,3s,5S)-8-(4H-1,2,4-triazole-3-carbonyl)-8-azabicyclo[3.2.1]octan-3-yl)-7-amino-3-(6-(2-amino-1,1,1,3,3,3-hexafluoropropan-2-yl)pyridin-3-yl)pyrazolo[1,5-a]pyrimidin-6-yl)ethanone]
[1]
  IC50: 1 to 10 µM
[2]
  IC50: 0.1 to 1 µM

## CC(=O)c1c([C@@H]2C[C@H]3CC[C@@H](C2)N3C(=O)CO)nc2c(-c3ccc(C(N)(C(F)(F)F)C(F)(F)F)nc3)cnn2c1N [Compound 7.81, 1-((1R,3s,5S)-3-(6-acetyl-7-amino-3-(6-(2-amino-1,1,1,3,3,3-hexafluoropropan-2-yl)pyridin-3-yl)pyrazolo[1,5-a]pyrimidin-5-yl)-8-azabicyclo[3.2.1]octan-8-yl)-2-hydroxyethanone]
[1]
  IC50: > 10 µM
[2]
  IC50: 1 to 10 µM

## CC(=O)c1c([C@@H]2C[C@H]3CC[C@@H](C2)N3C(=O)c2nnc(C)[nH]2)nc2c(-c3ccc(C(N)(C(F)(F)F)C(F)(F)F)nc3)cnn2c1N [Compound 7.82, 1-(7-amino-3-(6-(2-amino-1,1,1,3,3,3-hexafluoropropan-2-yl)pyridin-3-yl)-5-((1R,3s,5S)-8-(5-methyl-4H-1,2,4-triazole-3-carbonyl)-8-azabicyclo[3.2.1]octan-3-yl)pyrazolo[1,5-a]pyrimidin-6-yl)ethanone]
[1]
  IC50: 1 to 10 µM
[2]
  IC50: 1 to 10 µM

## CC(=O)c1c([C@@H]2C[C@H]3CC[C@@H](C2)N3C(=O)c2nnc(N)[nH]2)nc2c(-c3ccc(C(N)(C(F)(F)F)C(F)(F)F)nc3)cnn2c1N [Compound 7.83]
[1]
  IC50: 1 to 10 µM
[2]
  IC50: 0.1 to 1 µM

## CC(=O)c1c([C@@H]2C[C@H]3CC[C@@H](C2)N3C(=O)c2cc(N)n[nH]2)nc2c(-c3ccc(C(N)(C(F)(F)F)C(F)(F)F)nc3)cnn2c1N [Compound 7.84, 1-(7-amino-3-(6-(2-amino-1,1,1,3,3,3-hexafluoropropan-2-yl)pyridin-3-yl)-5-((1R,3s,5S)-8-(3-amino-1H-pyrazole-5-carbonyl)-8-azabicyclo[3.2.1]octan-3-yl)pyrazolo[1,5-a]pyrimidin-6-yl)ethanone]
[1]
  IC50: 1 to 10 µM
[2]
  IC50: 1 to 10 µM

## Nc1c(C2CC2)c([C@@H]2C[C@H]3CC[C@@H](C2)N3C(=O)c2nnc[nH]2)nc2c(-c3ccc(C(N)(C(F)(F)F)C(F)(F)F)nc3)cnn12 [Compound 7.85, ((1R,3s,5S)-3-(7-amino-3-(6-(2-amino-1,1,1,3,3,3-hexafluoropropan-2-yl)pyridin-3-yl)-6-cyclopropylpyrazolo [1,5-a]pyrimidin-5-yl)-8-azabicyclo[3.2.1]octan-8-yl)(4H-1,2,4-triazol-3-yl)methanone]
[1]
  IC50: 1 to 10 µM
[2]
  IC50: 1 to 10 µM

## Nc1nnc(C(=O)N2[C@@H]3CC[C@H]2C[C@H](c2nc4c(-c5ccc(C(N)(C(F)(F)F)C(F)(F)F)nc5)cnn4c(N)c2C2CC2)C3)[nH]1 [Compound 7.88, ((1R,3s,5S)-3-(7-amino-3-(6-(2-amino-1,1,1,3.3,3-hexafluoropropan-2-yl)pyridin-3-yl)-6-cyclopropylpyrazolo [1,5-a]pyrimidin-5-yl)-8-azabicyclo[3.2.1]octan-8-yl)(5-amino-4H-1,2,4-triazol-3-yl)methanone]
[1]
  IC50: 1 to 10 µM
[2]
  IC50: 1 to 10 µM

## Nc1cc([C@@H]2C[C@H]3CC[C@@H](C2)N3C(=O)c2ncn[nH]2)nc2c(-c3ccc(CO)nc3)cnn12 [Compound 7.97, ((1R,3s,5S)-3-(7-amino-3-(6-(hydroxymethyl)pyridin-3-yl)pyrazolo[1,5-a]pyrimidin-5-yl)-8-azabicyclo[3.2.1]octan-8-yl)(1H-1,2,4-triazol-5-yl)methanone]
[1]
  IC50: > 10 µM
[2]
  IC50: 1 to 10 µM

## CC(=O)c1c([C@@H]2C[C@H]3CC[C@@H](C2)N3C(=O)c2ncn[nH]2)nc2c(-c3cnc(C(C)(C)O)c(F)c3)cnn2c1N [Compound 7.98, 1-(5-((1R,3s,5S)-8-(1H-1,2,4-triazole-5-carbonyl)-8-azabicyclo[3.2.1]octan-3-yl)-7-amino-3-(5-fluoro-6-(2-hydroxypropan-2-yl)pyridin-3-yl)pyrazolo[1,5-a]pyrimidin-6-yl)ethanone]
[1]
  IC50: 0.001 to 0.1 µM
[2]
  IC50: 0.001 to 0.1 µM

## CC(=O)c1c(N2C3CCC2CN(C(=O)c2nnc[nH]2)C3)nc2c(-c3ccc(-c4ccccc4)nc3)cnn2c1N [Compound 8.5, 1-(5-(3-(4H-1,2,4-triazole-3-carbonyl)-3,8-diazabicyclo[3.2.1]octan-8-yl)-7-amino-3-(6-phenylpyridin-3-yl)pyrazolo[1,5-a]pyrimidin-6-yl)ethanone]
[1]
  IC50: 0.1 to 1 µM
[2]
  IC50: 1 to 10 µM

## CC(=O)c1c(N2C3CCC2CN(C(=O)[C@@H](C)O)C3)nc2c(-c3ccc(-c4ccccc4)nc3)cnn2c1N [Compound 8.6, (2R)-1-(8-(6-acetyl-7-amino-3-(6-phenylpyridin-3-yl)pyrazolo[1,5-a]pyrimidin-5-yl)-3,8-diazabicyclo[3.2.1]octan-3-yl)-2-hydroxypropan-1-one]
[1]
  IC50: 0.1 to 1 µM
[2]
  IC50: 1 to 10 µM

## CC(=O)c1c(N2C3CCC2CN(C(=O)CO)C3)nc2c(-c3ccc(-c4ccccc4)nc3)cnn2c1N [Compound 8.7, 1-(8-(6-acetyl-7-amino-3-(6-phenylpyridin-3-yl)pyrazolo[1,5-a]pyrimidin-5-yl)-3,8-diazabicyclo[3.2.1]octan-3-yl)-2-hydroxyethanone]
[1]
  IC50: 0.1 to 1 µM
[2]
  IC50: 1 to 10 µM

## CC(=O)c1c([C@@H]2C[C@H]3CC[C@@H](C2)N3C(=O)c2nnc[nH]2)nc2c(-c3ccc(N4NCCC4=O)nc3)cnn2c1N [Compound 8.19, 2-(5-(5-((1R,3s,5S)-8-(4H-1,2,4-triazole-3-carbonyl)-8-azabicyclo[3.2.1]octan-3-yl)-6-acetyl-7-aminopyrazolo[1,5-a]pyrimidin-3-yl)pyridin-2-yl)pyrazolidin-3-one]
[1]
  IC50: 0.1 to 1 µM
[2]
  IC50: 0.1 to 1 µM

## CC(=O)c1c([C@]2(O)C[C@H]3CC[C@@H](C2)N3C(=O)c2nnc[nH]2)nc2c(-c3ccc(-c4ccccc4)nc3)cnn2c1N [Compound 8.21, 1-(7-amino-5-((1R,3r,5S)-3-hydroxy-8-(4H-1,2,4-triazole-3-carbonyl)-8-azabicyclo[3.2.1]octan-3-yl)-3-(6-phenylpyridin-3-yl)pyrazolo[1,5-a]pyrimidin-6-yl)ethanone]
[1]
  IC50: 1 to 10 µM
[2]
  IC50: 1 to 10 µM

## CS(=O)(=O)c1c([C@]2(O)C[C@H]3CC[C@@H](C2)N3C(=O)c2nnc[nH]2)nc2c(-c3ccc(-c4ccccc4)nc3)cnn2c1N [Compound 8.22, ((1R,3r,5S)-3-(7-amino-6-(methylsulfonyl)-3-(6-phenylpyridin-3-yl)pyrazolo[1,5-a]pyrimidin-5-yl)-3-hydroxy-8-azabicyclo[3.2.1]octan-8-yl)(4H-1,2,4-triazol-3-yl)methanone]
[1]
  IC50: 0.1 to 1 µM
[2]
  IC50: 1 to 10 µM

## Nc1cc([C@]2(O)C[C@H]3CC[C@@H](C2)N3C(=O)c2nnc[nH]2)nc2c(-c3ccc(-c4ccccc4)nc3)cnn12 [Compound 8.23, ((1R,3r,5S)-3-(7-amino-3-(6-phenylpyridin-3-yl)pyrazolo[1,5-a]pyrimidin-5-yl)-3-hydroxy-8-azabicyclo[3.2.1]octan-8-yl)(4H-1,2,4-triazol-3-yl)methanone]
[1]
  IC50: 1 to 10 µM
[2]
  IC50: 1 to 10 µM

## Nc1c(C2CC2)c([C@]2(O)C[C@H]3CC[C@@H](C2)N3C(=O)c2nnc[nH]2)nc2c(-c3ccc(-c4ccccc4)nc3)cnn12 [Compound 8.24, ((1R,3r,5S)-3-(7-amino-6-cyclopropyl-3-(6-phenylpyridin-3-yl)pyrazolo[1,5-a]pyrimidin-5-yl)-3-hydroxy-8-azabicyclo[3.2.1]octan-8-yl)(4H-1,2,4-triazol-3-yl)methanone]
[1]
  IC50: 0.1 to 1 µM
[2]
  IC50: 1 to 10 µM
